Values of other authors in patent publication US20020127259A1, “Rumen by-pass delivery system” (priority 1998, published 2002).

Settings: given by Seghers in 1990

Row | relative rate of phospholipid hydration [%] | Substance
1 | 100 | Phosphatidylcholine
2 | 8.5 | phosphatidic acid
3 | 16 | phosphatidylethanolamine [P-ethanolamine]
4 | 44 | phosphatidylinositol
